Laboratory results published in US11433140B2, “Specific antibody drug conjugates (ADCs) having KSP inhibitors” (Bayer Pharma Aktiengesellschaft, priority 2016, dated 2022).
Counter-ions that a name gives are not always drawn.

Columns and labels:
NCI-H292 = test: MTT assay, cytotoxic effect on NCI-H292; type: cell-based, human; conditions: Table 2, metabolites, MTT after 96 h
Experimental: NCI-H292: human mucoepidermoid lung carcinoma cells, ATCC-CRL-1848, standard medium: RPMI 1640 (Biochrom; #FG1215, stab. glutamine)+10% FCS (Sigma; #F2442), TWEAKR-positive; EGFR-positive,
(§1) The cells were cultivated by the standard method, with the growth media specified in section C-1. The test was carried out by detaching the cells with a solution of Accutase in PBS (from Biochrom AG #L2143), pelletizing, resuspending in culture medium, counting and sowing into a 96-well culture plate with white bottom (from Costar #3610) (NCI H292: 2500 cells/well; SK-HEP-1: 1000 cells/well; KPL-4: 1200 cells/well; in total volume 100 μl). The cells were then incubated in an incubator at 37° C. and 5% carbon dioxide. After 48 h, the medium was replaced. The antibody drug conjugates in 10 μl of culture medium in concentrations from 10^−5M to 10^−13M were then pipetted to the cells (in triplicate), and the assay was then incubated in an incubator at 37° C. and 5% carbon dioxide. The suspension cells were counted and sown into a 96-well culture plate with white bottom (from Costar #3610) (#3610) (MOLM-13: 2000 cells/well; NB4: 7000 cells/well; MV-4-11: 5000 cells/well in a total volume of 100 μl). After 6 hours of incubation at 37° C. and 5% carbon dioxide, the medium was changed and the antibody-drug conjugates or metabolites were added by pipette in 10 μl of culture medium in concentrations of 10^−5M to 10^−13M to the cells (triplicates) in 90 μl. The batch was incubated in an incubator at 37° C. and 5% carbon dioxide. After 96 h, the cell proliferation was detected using the MTT assay (ATCC, Manassas, Va., USA, catalogue No. 30-1010K). To this end, the MTT reagent was incubated with the cells for 4 h, followed by lysis of the cells overnight by addition of the detergent. The dye formed was detected at 570 nm (Infinite M1000 pro, Tecan). The measured data were used to calculate the IC50 of the growth inhibition using the DRC (dose response curve). The proliferation of cells which were not treated with test substance but were otherwise identically treated was defined as the 100% figure.

MOLM-13 = test: MTT assay, cytotoxic effect on MOLM-13; type: cell-based, human; conditions: Table 2; metabolites; MTT after 96 h
Experimental: (§2) C-1a: Determination of the Cytotoxic Effect of the ADCs Directed Against CD123 and CXCR5
(§3) The analysis of the cytotoxic effect of the exemplary ADCs was carried out with various cell lines:
MOLM-13: human acute monocytic leukaemia cells (AML-M5a), DSMZ, No. ACC 554, standard medium: RPMI 1640 (from Gibco; #21875-059, stab. L-glutamine)+20% heat inactivated FCS (Gibco, No. 10500-064); CD123-positive.
(§4) The cells were cultivated by the standard method, with the growth media specified in section C-1. The test was carried out by detaching the cells with a solution of Accutase in PBS (from Biochrom AG #L2143), pelletizing, resuspending in culture medium, counting and sowing into a 96-well culture plate with white bottom (from Costar #3610) (NCI H292: 2500 cells/well; SK-HEP-1: 1000 cells/well; KPL-4: 1200 cells/well; in total volume 100 μl). […] The suspension cells were counted and sown into a 96-well culture plate with white bottom (from Costar #3610) (#3610) (MOLM-13: 2000 cells/well; NB4: 7000 cells/well; MV-4-11: 5000 cells/well in a total volume of 100 μl). […] After 96 h, the cell proliferation was detected using the MTT assay (ATCC, Manassas, Va., USA, catalogue No. 30-1010K). […] The dye formed was detected at 570 nm (Infinite M1000 pro, Tecan). The measured data were used to calculate the IC50 of the growth inhibition using the DRC (dose response curve). […]

Caco-2 cells = test: Cell permeability, flux assay using Caco-2 cells; type: in vitro ADME; conditions: for Papp (B-A): Caco-2, basal to apical, 2 hours
Experimental: The cell permeability of a substance can be investigated by means of in vitro testing in a flux assay using Caco-2 cells [M. D. Troutman and D. R. Thakker, Pharm. […] For this purpose, the cells were cultured for 15-16 days on 24-well filter plates. For the determination of permeation, the respective test substance was applied in a HEPES buffer to the cells either apically (A) or basally (B) and incubated for 2 hours. After 0 hours and after 2 hours, samples were taken from the cis and trans compartments. The samples were separated by HPLC (Agilent 1200, Böblingen, Germany) using reverse phase columns. The HPLC system was coupled via a Turbo Ion Spray Interface to a Triple Quadropole mass spectrometer API 4000 (AB SCIEX Deutschland GmbH, Darmstadt, Germany).
Of critical importance for toxophores which are released intracellularly is the permeability from B to A [Papp (B-A)] and the ratio of Papp (B-A) to Papp (A-B) (efflux ratio): The lower this permeability, the slower the active and passive transport processes of the substance through the monolayer of Caco-2 cells. If the efflux ratio, moreover, gives no indications as to active transport, the substance, following intracellular release, can remain in the cell for longer. As a consequence, the time available for interaction with the biochemical target (here: kinesin spindle protein KSP/Eg5) also increases.

SKHep-1 = test: MTT assay, cytotoxic effect on SK-HEP-1; type: cell-based, human; conditions: Table 2, metabolites, MTT after 96 h
Experimental: SK-HEP-1: human liver cell cancer line, ATCC No. HTB-52, standard medium: MEM with Earle's salts+Glutamax I (Invitrogen 41090)+10% heat inactivated FCS (from Gibco, No. 10500-064); TWEAKR-positive
as §1, with “The proliferation of cells which were not treated with test substance but were otherwise identically treated was defined as the 100% figure.” left out

KPL-4 = test: MTT assay, cytotoxic effect on KPL-4; type: cell-based, human; conditions: Table 2; metabolites; MTT after 96 h
Experimental: KPL4: human breast cancer cell line, Bayer Pharma AG (identity checked and confirmed on 19 Jul. 2012 at DSMZ), standard medium: RPMI 1640 (from Gibco; #21875-059, stab. L-glutamine)+10% heat inactivated FCS (Gibco, No. 10500-064); HER2-positive.
The cells were cultivated by the standard method, with the growth media specified in section C-1. The test was carried out by detaching the cells with a solution of Accutase in PBS (from Biochrom AG #L2143), pelletizing, resuspending in culture medium, counting and sowing into a 96-well culture plate with white bottom (from Costar #3610) (NCI H292: 2500 cells/well; SK-HEP-1: 1000 cells/well; KPL-4: 1200 cells/well; in total volume 100 μl). The cells were then incubated in an incubator at 37° C. and 5% carbon dioxide. After 48 h, the medium was replaced. […] The suspension cells were counted and sown into a 96-well culture plate with white bottom (from Costar #3610) (#3610) (MOLM-13: 2000 cells/well; NB4: 7000 cells/well; MV-4-11: 5000 cells/well in a total volume of 100 μl). […] After 96 h, the cell proliferation was detected using the MTT assay (ATCC, Manassas, Va., USA, catalogue No. 30-1010K). […] The dye formed was detected at 570 nm (Infinite M1000 pro, Tecan). The measured data were used to calculate the IC50 of the growth inhibition using the DRC (dose response curve). […]

[1] = molecular target: T1, human kinesin spindle protein KSP/Eg5 (Homo sapiens, UniProt P52732); test: Inhibition of the kinesin spindle protein KSP/Eg5 (ATPase activity, malachite green); type: biochemical; conditions: motor domain 10 nM, microtubuli, ATP 500 μM, 2 h RT
T1 construct: The motor domain of the human kinesin spindle protein KSP/Eg5; purchased tebu-bio/Cytoskeleton Inc 027EG01-XL
T1 sequence (P52732 18-359 limits assumed): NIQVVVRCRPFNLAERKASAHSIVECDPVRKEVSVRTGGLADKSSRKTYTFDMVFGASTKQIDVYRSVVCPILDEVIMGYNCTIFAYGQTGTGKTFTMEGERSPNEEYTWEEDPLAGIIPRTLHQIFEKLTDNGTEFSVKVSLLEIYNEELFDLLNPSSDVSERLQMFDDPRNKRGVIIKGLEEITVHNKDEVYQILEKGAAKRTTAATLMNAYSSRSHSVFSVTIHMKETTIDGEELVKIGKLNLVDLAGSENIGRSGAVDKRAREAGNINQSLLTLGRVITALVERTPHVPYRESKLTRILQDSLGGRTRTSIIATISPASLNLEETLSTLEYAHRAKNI
Experimental: The motor domain of the human kinesin spindle protein KSP/Eg5 (tebu-bio/Cytoskeleton Inc, No. 027EG01-XL) was incubated in a concentration of 10 nM with microtubuli (bovine or porcine, tebu-bio/Cytoskeleton Inc) stabilized with 50 μg/ml taxol (Sigma No. T7191-5MG) for 5 min at RT in 15 mM PIPES, pH 6.8 (5 mM MgCl2 and 10 mM DTT, Sigma). […] Incubation was at RT for 2 h. ATPase activity was detected by detecting the inorganic phosphate formed using malachite green (Biomol). […] The positive controls used were monastrol (Sigma, M8515-1 mg) and ispinesib (AdooQ Bioscience A10486). The individual data of the dose-activity curve are eight-fold determinations. The IC50 values are means of two independent experiments.

MV-4-11 = test: MTT assay, cytotoxic effect on MV-4-11; type: cell-based, human; conditions: Table 2; metabolites; MTT after 96 h
Experimental: as §2, §3
MV-4-11: human biphenotypic B myelomonocytic leukaemia cells obtained from peripheral blood, ATCC-CRL-9591, standard medium: IMDM (ATCC: 30-2005), +10% heat inactivated FCS (Gibco, No. 10500-064); CD123-positive
as §4

| SMILES | IC50 (NCI-H292) [nM] | IC50 (MOLM-13) [nM] | Papp (B-A) (Caco-2 cells) [×10⁻⁶ cm/s] | Efflux ratio compared with the reference metabolites (Caco-2 cells; Caco-2, in words) | Transport from the cell compared with the reference metabolites (Caco-2 cells; Caco-2, in words) | Efflux ratio (Caco-2 cells; Caco-2, ratio of Papp (B-A) to Papp (A-B)) | IC50 (SKHep-1) [nM] | IC50 (KPL-4) [nM] | IC50 [1] [nM] | IC50 (MV-4-11) [nM] | IC50 (NCI-H292; Homo sapiens, NCI-H292) [nM] | IC50 (SKHep-1; Homo sapiens, SK-HEP1) [nM] |
| --- | --- | --- | --- | --- | --- | --- | --- | --- | --- | --- | --- | --- |
| CC(C)(C)[C@H](c1cc(-c2cc(F)ccc2F)cn1Cc1ccccc1)N(CC[C@H](N)C(=O)NCCNC(=O)[C@@H](CCC(=O)O)NC(=O)CNC(=O)CC(SC[C@H](N)C(=O)O)C(=O)O)C(=O)CO.O=C(O)C(F)(F)F (stereo partly drawn) [Example M1, N-(3-{[(2R)-2-Amino-2-carboxyethyl]sulfanyl}-3-carboxypropanoyl)glycyl-N-[2-({(25)-2-amino-4-[{(1R)-1-[1-benzyl-4-(2,5-difluorophenyl)-1H-pyrrol-2-yl]-2,2-dimethylpropyl}(glycoloyl)amino]butanoyl}amino)ethyl]-D-alpha-glutamine trifluoroacetic Acid Salt] | 500 | 125 | 0.12 | reduced efflux ratio | reduced transport from the cell | 0.8 | 98.8 | 500 | 2.13 | 302 |  |  |
| CC(C)(C)[C@H](c1cc(-c2cc(F)ccc2F)cn1Cc1ccccc1)N(CC[C@H](N)C(=O)NCCNC(=O)CNC(=O)C(CC(=O)O)SC[C@H](N)C(=O)O)C(=O)CO (mixture of isomers) [Example Rm2, 4-[(2-{[2-({(2S)-2-Amino-4-[{(1R)-1-[1-benzyl-4-(2,5-difluorophenyl)-1H-pyrrol-2-yl]-2,2-dimethylpropyl}(glycoloyl)amino]butanoyl}amino)ethyl]amino}-2-oxoethyl)amino]-3-{[(2R)-2-amino-2-carboxyethyl]sulfanyl}-4-oxobutanoic Acid Trifluoroacetic Acid Salt] |  |  |  |  |  |  |  |  |  |  | 276 | 89 |
| CC(C)(C)[C@H](c1cc(-c2cc(F)ccc2F)cn1Cc1ccccc1)N(CC[C@H](N)C(=O)NCCNC(=O)CNC(=O)CC(SC[C@H](N)C(=O)O)C(=O)O)C(=O)CO (mixture of isomers) [Example Rm1, 4-[(2-{[2-({(2S)-2-Amino-4-[{(1R)-1-[1-benzyl-4-(2,5-difluorophenyl)-1H-pyrrol-2-yl]-2,2-dimethylpropyl}(glycoloyl)amino]butanoyl}amino)ethyl]amino}-2-oxoethyl)amino]-2-{[(2R)-2-amino-2-carboxyethyl]sulfanyl}-4-oxobutanoic Acid Trifluoroacetic Acid Salt] |  |  | 1.3 |  |  |  |  |  |  |  | 63.6 | 19 |
